≈ marks a conversion by molar mass, not a printed value.
How the values were obtained:
Campylobacter jejuni [1] = test: Antibacterial activity against Campylobacter jejuni assessed as percent resistant isolates by broth microdilution method; format: functional; details: pooled result: one value given for 2 cell lines, strains, targets or settings
Campylobacter jejuni [2] = test: Antibacterial activity against Campylobacter jejuni by broth microdilution method; format: functional
Campylobacter coli = test: Antibacterial activity against Campylobacter coli by broth microdilution method; format: functional
Campylobacter jejuni [3] = test: Antibacterial activity against Campylobacter jejuni assessed as percent susceptible isolates by broth microdilution method; format: functional; details: pooled result: one value given for 2 cell lines, strains, targets or settings
Vibrio cholerae = test: Antibacterial activity against Vibrio cholerae by broth microdilution method; format: functional
Salmonella typhimurium = test: Antibacterial activity against Salmonella enterica serovar Typhimurium by broth microdilution method; format: functional, Salmonella enterica subsp. enterica serovar Typhimurium
Shigella dysenteriae = test: Antibacterial activity against Shigella dysenteriae by broth microdilution method; format: functional
Plesiomonas shigelloides = test: Antibacterial activity against Plesiomonas shigelloides by broth microdilution method; format: functional
Vibrio alginolyticus = test: Antibacterial activity against Vibrio alginolyticus by broth microdilution method; format: functional
Shigella boydii = test: Antibacterial activity against Shigella boydii by broth microdilution method; format: functional
Vibrio parahaemolyticus = test: Antibacterial activity against Vibrio parahaemolyticus by broth microdilution method; format: functional
Yersinia enterocolitica = test: Antibacterial activity against Yersinia enterocolitica by broth microdilution method; format: functional
Aeromonas veronii = test: Antibacterial activity against Aeromonas veronii by broth microdilution method; format: functional
Aeromonas caviae = test: Antibacterial activity against Aeromonas caviae by broth microdilution method; format: functional
Vibrio fluvialis = test: Antibacterial activity against Vibrio fluvialis by broth microdilution method; format: functional
Vibrio vulnificus = test: Antibacterial activity against Vibrio vulnificus by broth microdilution method; format: functional
Aeromonas hydrophila = test: Antibacterial activity against Aeromonas hydrophila by broth microdilution method; format: functional
Salmonella enteritidis = test: Antibacterial activity against Salmonella enterica serovar Enteritidis by broth microdilution method; format: functional, Salmonella enterica subsp. enterica serovar Enteritidis
Shigella flexneri = test: Antibacterial activity against Shigella flexneri by broth microdilution method; format: functional
Shigella sonnei = test: Antibacterial activity against Shigella sonnei by broth microdilution method; format: functional
Escherichia coli = test: Antibacterial activity against Escherichia coli by broth microdilution method; format: functional
[4] = system: Yersinia pseudotuberculosis; test: Antibacterial activity against Yersinia pseudotuberculosis by broth microdilution method; format: functional
Aeromonas sobria = test: Antibacterial activity against Aeromonas sobria by broth microdilution method; format: functional
Vibrio sp. = test: Antibacterial activity against Vibrio sp. by broth microdilution method; format: functional

CC[C@H]1OC(=O)[C@H](C)[C@@H](O[C@H]2C[C@@](C)(OC)[C@@H](O)[C@H](C)O2)[C@H](C)[C@@H](O[C@@H]2O[C@H](C)C[C@H](N(C)C)[C@H]2O)[C@](C)(O)C[C@@H](C)C(=O)[C@H](C)[C@@H](O)[C@]1(C)O [ERYTHROMYCIN]
Activity (Campylobacter jejuni [1]): 0% | MIC50 (Campylobacter jejuni [2]): 0.25 µg/mL (≈ 0.341 µM) | MIC90 (Campylobacter jejuni [2]): 0.5 µg/mL (≈ 0.681 µM) | MIC50 (Campylobacter coli): 0.25 µg/mL (≈ 0.341 µM) | MIC90 (Campylobacter coli): 0.5 µg/mL (≈ 0.681 µM) | Activity (Campylobacter jejuni [3]): 100%

CO[C@H]1/C=C/O[C@@]2(C)Oc3c(C)c(O)c4c(O)c(c5c(nc6cc(C)ccn65)c4c3C2=O)NC(=O)/C(C)=C\C=C\[C@H](C)[C@H](O)[C@@H](C)[C@@H](O)[C@@H](C)[C@H](OC(C)=O)[C@@H]1C [RIFAXIMIN]
MIC50 (Vibrio cholerae): 0.5 µg/mL (≈ 0.636 µM) | MIC90 (Vibrio cholerae): 1 µg/mL (≈ 1.27 µM) | MIC50 (Salmonella typhimurium): 8 µg/mL (≈ 10.2 µM) | MIC90 (Salmonella typhimurium): 16 µg/mL (≈ 20.4 µM) | MIC50 (Shigella dysenteriae): 8 µg/mL (≈ 10.2 µM) | MIC90 (Shigella dysenteriae): 16 µg/mL (≈ 20.4 µM) | MIC (Plesiomonas shigelloides): 8 µg/mL (≈ 10.2 µM) | MIC50 (Plesiomonas shigelloides): 8 µg/mL (≈ 10.2 µM) | MIC50 (Vibrio alginolyticus): 0.5 µg/mL (≈ 0.636 µM) | MIC90 (Vibrio alginolyticus): 1 µg/mL (≈ 1.27 µM) | MIC50 (Shigella boydii): 8 µg/mL (≈ 10.2 µM) | MIC90 (Shigella boydii): 16 µg/mL (≈ 20.4 µM) | MIC50 (Vibrio parahaemolyticus): 0.5 µg/mL (≈ 0.636 µM) | MIC90 (Vibrio parahaemolyticus): 1 µg/mL (≈ 1.27 µM) | MIC50 (Yersinia enterocolitica): 4 µg/mL (≈ 5.09 µM) | MIC90 (Yersinia enterocolitica): 8 µg/mL (≈ 10.2 µM) | MIC50 (Aeromonas veronii): 4 µg/mL (≈ 5.09 µM) | MIC90 (Aeromonas veronii): 8 µg/mL (≈ 10.2 µM) | MIC50 (Campylobacter jejuni [2]): 32 µg/mL (≈ 40.7 µM) | MIC90 (Campylobacter jejuni [2]): 32 µg/mL (≈ 40.7 µM) | MIC50 (Campylobacter coli): 32 µg/mL (≈ 40.7 µM) | MIC90 (Campylobacter coli): 32 µg/mL (≈ 40.7 µM) | MIC50 (Aeromonas caviae): 4 µg/mL (≈ 5.09 µM) | MIC90 (Aeromonas caviae): 8 µg/mL (≈ 10.2 µM) | MIC50 (Vibrio fluvialis): 0.5 µg/mL (≈ 0.636 µM) | MIC90 (Vibrio fluvialis): 1 µg/mL (≈ 1.27 µM) | MIC50 (Vibrio vulnificus): 0.5 µg/mL (≈ 0.636 µM) | MIC90 (Vibrio vulnificus): 1 µg/mL (≈ 1.27 µM) | MIC50 (Aeromonas hydrophila): 4 µg/mL (≈ 5.09 µM) | MIC90 (Aeromonas hydrophila): 8 µg/mL (≈ 10.2 µM) | MIC50 (Salmonella enteritidis): 8 µg/mL (≈ 10.2 µM) | MIC90 (Salmonella enteritidis): 16 µg/mL (≈ 20.4 µM) | MIC50 (Shigella flexneri): 8 µg/mL (≈ 10.2 µM) | MIC90 (Shigella flexneri): 16 µg/mL (≈ 20.4 µM) | MIC50 (Shigella sonnei): 8 µg/mL (≈ 10.2 µM) | MIC90 (Shigella sonnei): 16 µg/mL (≈ 20.4 µM) | MIC50 (Escherichia coli): 8 µg/mL (≈ 10.2 µM) | MIC90 (Escherichia coli): 16 µg/mL (≈ 20.4 µM) | MIC50 [4]: 4 µg/mL (≈ 5.09 µM) | MIC90 [4]: 8 µg/mL (≈ 10.2 µM) | MIC50 (Aeromonas sobria): 4 µg/mL (≈ 5.09 µM) | MIC90 (Aeromonas sobria): 8 µg/mL (≈ 10.2 µM) | MIC50 (Vibrio sp.): 0.5 µg/mL (≈ 0.636 µM) | MIC90 (Vibrio sp.): 1 µg/mL (≈ 1.27 µM)

Source: ChEMBL document CHEMBL1629662, “Antimicrobial activity of prulifloxacin tested against a worldwide collection of gastroenteritis-producing pathogens, including those causing traveler's diarrhea” (2009)
